From patent US8288385B2, “6-(3-aza-bicyclo[3.1.0]hex-3-yl)-2-phenyl-pyrimidines” (Actelion Pharmaceuticals Ltd., priority 2009, dated 2012)

target: T1, human P2Y12 receptor (Homo sapiens, UniProt Q9H244); experiment: P2Y12 receptor binding assay; conditions: CHO cells with recombinant expression of the human P2Y12 receptor; tritium-labeled 2-methyl-S-ADP; RT, 2 hours
T1 construct: expressed in transfected cells; host or cells: Chinese Hamster Ovary (CHO) cells
Experimental: P2Y12 Receptor Binding Assay
Chinese Hamster Ovary (CHO) cells with recombinant expression of the human P2Y12 receptor were cultured in 24 well cell-culture plates. Cells were washed three times with binding buffer (50 mM Tris pH 7.4, 100 mM NaCl, 1 mM EDTA, 0.5% BSA). The cells were then incubated with 0.5 ml per well binding buffer containing tritium-labeled 2-methyl-thio-adenosine 5′-diphosphate (2-methyl-S-ADP) (between 100,000 and 300,000 dpm per well) and various concentrations of test compounds. After incubation at RT for 2 hours, cells were washed three times with binding buffer. Then, cells were solubilized by addition of 0.5 ml solubilization buffer (SDS, NaOH, EDTA). The content of each well was then transferred into beta-counter vials and 2.0 ml of Ultima Gold Scintillation liquid was added.

T1 sequence (Q9H244 whole entry): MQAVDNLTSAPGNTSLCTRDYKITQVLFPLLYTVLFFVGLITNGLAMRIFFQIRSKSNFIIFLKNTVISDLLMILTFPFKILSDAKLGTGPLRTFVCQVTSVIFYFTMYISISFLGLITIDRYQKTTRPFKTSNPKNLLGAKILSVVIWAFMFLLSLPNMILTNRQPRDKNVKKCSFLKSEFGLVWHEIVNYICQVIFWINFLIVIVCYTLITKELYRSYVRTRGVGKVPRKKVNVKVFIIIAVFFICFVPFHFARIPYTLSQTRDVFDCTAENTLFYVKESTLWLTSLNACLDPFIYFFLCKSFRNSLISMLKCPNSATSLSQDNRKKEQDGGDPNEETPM

Row | Structure (SMILES) | IC50 [nM]
1 | CCCCOC(=O)N1CCN(C(=O)[C@H](CCC(=O)O)NC(=O)c2cc(N3C[C@@H]4[C@@H](COC)[C@@H]4C3)nc(-c3ccccc3)n2)CC1 [Example 10, 4-((S)-4-Carboxy-2-{[6-((1α,5α,6α)-6-methoxymethyl-3-aza-bicyclo[3.1.0]hex-3-yl)-2-phenyl-pyrimidine-4-carbonyl]-amino}-butyryl)-piperazine-1-carboxylic acid butyl ester] | 6.6
2 | CCCCOC(=O)N1CCN(C(=O)[C@@H](NC(=O)c2cc(N3C[C@@H]4[C@H](C3)[C@@H]4C(=O)O)nc(-c3ccccc3)n2)C(C)C)CC1 [Example 11, (1α,5α,6β)-3-{6-[(S)-1-(4-Butoxycarbonyl-piperazine-1-carbonyl)-2-methyl-propylcarbamoyl]-2-phenyl-pyrimidin-4-yl}-3-aza-bicyclo[3.1.0]hexane-6-carboxylic acid] | 14
3 | CCCCOC(=O)N1CCN(C(=O)[C@@H](NC(=O)c2cc(N3C[C@@H]4[C@H](C3)[C@H]4C(=O)O)nc(-c3ccccc3)n2)C(C)C)CC1 [Example 12, (1α,5α,6α)-3-{6-[(S)-1-(4-Butoxycarbonyl-piperazine-1-carbonyl)-2-methyl-propylcarbamoyl]-2-phenyl-pyrimidin-4-yl}-3-aza-bicyclo[3.1.0]hexane-6-carboxylic acid] | 70
4 | CCOC(=O)N1CCN(C(=O)C(NC(=O)c2cc(N3CC4C(C3)C4C(=O)O)nc(-c3ccccc3)n2)C(C)C)CC1 [Example 13, (1α,5α,6β)-3-{6-[(S)-1-(4-Ethoxycarbonyl-piperazine-1-carbonyl)-2-methyl-propylcarbamoyl]-2-phenyl-pyrimidin-4-yl}-3-aza-bicyclo[3.1.0]hexane-6-carboxylic acid] | 96
5 | CCCOC(=O)N1CCN(C(=O)[C@@H](NC(=O)c2cc(N3C[C@@H]4[C@H](C3)[C@@H]4C(=O)O)nc(-c3ccccc3)n2)C(C)C)CC1 [Example 14, (1α,5α,6β)-3-{6-[(S)-2-Methyl-1-(4-propoxycarbonyl-piperazine-1-carbonyl)-propylcarbamoyl]-2-phenyl-pyrimidin-4-yl}-3-aza-bicyclo[3.1.0]hexane-6-carboxylic acid] | 60
6 | CCCCCOC(=O)N1CCN(C(=O)[C@@H](NC(=O)c2cc(N3C[C@@H]4[C@H](C3)[C@@H]4C(=O)O)nc(-c3ccccc3)n2)C(C)C)CC1 [Example 15, (1α,5α,6β)-3-{6-[(S)-2-Methyl-1-(4-pentyloxycarbonyl-piperazine-1-carbonyl)-propylcarbamoyl]-2-phenyl-pyrimidin-4-yl}-3-aza-bicyclo[3.1.0]hexane-6-carboxylic acid] | 15
7 | CCCCCCOC(=O)N1CCN(C(=O)[C@@H](NC(=O)c2cc(N3C[C@@H]4[C@H](C3)[C@@H]4C(=O)O)nc(-c3ccccc3)n2)C(C)C)CC1 [Example 16, (1α,5α,6β)-3-{6-[(S)-1-(4-Hexyloxycarbonyl-piperazine-1-carbonyl)-2-methyl-propylcarbamoyl]-2-phenyl-pyrimidin-4-yl}-3-aza-bicyclo[3.1.0]hexane-6-carboxylic acid] | 34
8 | CCCCOC(=O)N1CCN(C(=O)[C@@H](NC(=O)c2cc(N3C[C@@H]4[C@H](C3)[C@H]4C(N)=O)nc(-c3ccccc3)n2)C(C)C)CC1 [Example 17, 4-((S)-2-{[6-((1α,5α,6α)-6-Carbamoyl-3-aza-bicyclo[3.1.0]hex-3-yl)-2-phenyl-pyrimidine-4-carbonyl]-amino}-3-methyl-butyryl)-piperazine-1-carboxylic acid butyl ester] | 13
9 | CCCCOC(=O)N1CCN(C(=O)[C@@H](NC(=O)c2cc(N3C[C@@H]4[C@@H](C#N)[C@@H]4C3)nc(-c3ccccc3)n2)C(C)C)CC1 [Example 18, 4-((S)-2-{[6-((1α,5α,6α)-6-Cyano-3-aza-bicyclo[3.1.0]hex-3-yl)-2-phenyl-pyrimidine-4-carbonyl]-amino}-3-methyl-butyryl)-piperazine-1-carboxylic acid butyl ester] | 75
10 | CCCCOC(=O)N1CCN(C(=O)[C@@H](NC(=O)c2cc(N3C[C@@H]4[C@H](C3)[C@H]4c3nnn[nH]3)nc(-c3ccccc3)n2)C(C)C)CC1 [Example 19] | 12
11 | CCCCOC(=O)N1CCN(C(=O)[C@@H](NC(=O)c2cc(N3C[C@@H]4[C@H](C3)[C@@H]4C(N)=O)nc(-c3ccccc3)n2)C(C)C)CC1 [Example 20, 4-((S)-2-{[6-((1α,5α,6β)-6-Carbamoyl-3-aza-bicyclo[3.1.0]hex-3-yl)-2-phenyl-pyrimidine-4-carbonyl]-amino}-3-methyl-butyryl)-piperazine-1-carboxylic acid butyl ester] | 20
12 | CCCCOC(=O)N1CCN(C(=O)[C@@H](NC(=O)c2cc(N3C[C@@H]4[C@H](C#N)[C@@H]4C3)nc(-c3ccccc3)n2)C(C)C)CC1 [Example 21, 4-((S)-2-{[6-((1α,5α,6β)-6-Cyano-3-aza-bicyclo[3.1.0]hex-3-yl)-2-phenyl-pyrimidine-4-carbonyl]-amino}-3-methyl-butyryl)-piperazine-1-carboxylic acid butyl ester] | 10
13 | CCCCOC(=O)N1CCN(C(=O)[C@@H](NC(=O)c2cc(N3C[C@@H]4[C@H](C3)[C@@H]4c3nnn[nH]3)nc(-c3ccccc3)n2)C(C)C)CC1 [Example 22] | 38
14 | CCCCOC(=O)N1CCN(C(=O)[C@@H](NC(=O)c2cc(N3C[C@@H]4[C@H](N)[C@@H]4C3)nc(-c3ccccc3)n2)C(C)C)CC1 [Example 23, 4-((S)-2-{[6-((1α,5α,6β)-6-Amino-3-aza-bicyclo[3.1.0]hex-3-yl)-2-phenyl-pyrimidine-4-carbonyl]-amino}-3-methyl-butyryl)-piperazine-1-carboxylic acid butyl ester] | 266
15 | CCCCOC(=O)N1CCN(C(=O)[C@@H](NC(=O)c2cc(N3C[C@@H]4[C@@H](CC(=O)O)[C@@H]4C3)nc(-c3ccccc3)n2)C(C)C)CC1 [Example 24, 4-((S)-2-{[6-((1α,5α,6α)-6-Carboxymethyl-3-aza-bicyclo[3.1.0]hex-3-yl)-2-phenyl-pyrimidine-4-carbonyl]-amino}-3-methyl-butyryl)-piperazine-1-carboxylic acid butyl ester] | 13
16 | CCCCOC(=O)N1CCN(C(=O)[C@@H](NC(=O)c2cc(N3C[C@@H]4[C@H](CC(=O)O)[C@@H]4C3)nc(-c3ccccc3)n2)C(C)C)CC1 [Example 25, 4-((S)-2-{[6-((1α,5α,6β)-6-Carboxymethyl-3-aza-bicyclo[3.1.0]hex-3-yl)-2-phenyl-pyrimidine-4-carbonyl]-amino}-3-methyl-butyryl)-piperazine-1-carboxylic acid butyl ester] | 13
17 | CCCCOC(=O)N1CCN(C(=O)[C@@H](NC(=O)c2cc(N3C[C@@H]4[C@H](CCC(=O)O)[C@@H]4C3)nc(-c3ccccc3)n2)C(C)C)CC1 [Example 26, 4-[(S)-2-({6-[(1α,5α,6β)-6-(2-Carboxy-ethyl)-3-aza-bicyclo[3.1.0]hex-3-yl]-2-phenyl-pyrimidine-4-carbonyl}-amino)-3-methyl-butyryl]-piperazine-1-carboxylic acid butyl ester] | 59
18 | CCCCOC(=O)N1CCN(C(=O)[C@@H](NC(=O)c2cc(N3C[C@@H]4[C@@H](CCC(=O)O)[C@@H]4C3)nc(-c3ccccc3)n2)C(C)C)CC1 [Example 27, 4-[(S)-2-({6-[(1α,5α,6α)-6-(2-Carboxy-ethyl)-3-aza-bicyclo[3.1.0]hex-3-yl]-2-phenyl-pyrimidine-4-carbonyl}-amino)-3-methyl-butyryl]-piperazine-1-carboxylic acid butyl ester] | 151
